# Laboratory results from PubChem BioAssay (NCI).
#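 Step 1: Grow cells in 96-well plates. Step 2: Expose to compound for 48 hours at 5 concentrations. Step 3: Interpolate endpoints linearly; if unreached, use highest concentration. The concentration for full growth arrest is given as TGI.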
# Experiments:
# Assay in all cases: DTP human tumour cell line panel, 48 h
# HCT-116 colon = system: HCT-116 colon
# NCI-H460 lung = system: NCI-H460 lung
# SF-539 CNS = system: SF-539 CNS
# MCF7 breast = system: MCF7 breast
# NCI-H23 lung = system: NCI-H23 lung
# NCI-H522 lung = system: NCI-H522 lung
# SK-MEL-2 melanoma = system: SK-MEL-2 melanoma
# HS 578T breast = system: HS 578T breast
# A549 NSCLC = system: A549 NSCLC
# NCI/ADR-RES ovarian = system: NCI/ADR-RES ovarian
# SK-MEL-28 melanoma = system: SK-MEL-28 melanoma
# HOP-92 NSCLC = system: HOP-92 NSCLC
# COLO 205 colon = system: COLO 205 colon
# MDA-N = system: MDA-N
# UO-31 renal = system: UO-31 renal
# SK-MEL-5 melanoma = system: SK-MEL-5 melanoma
# KM12 colon = system: KM12 colon
# UACC-257 melanoma = system: UACC-257 melanoma
# A498 renal = system: A498 renal
# MOLT-4 leukemia = system: MOLT-4 leukemia
# EKVX NSCLC = system: EKVX NSCLC
# HT29 colon = system: HT29 colon
# MALME-3M melanoma = system: MALME-3M melanoma
# RPMI-8226 leukemia = system: RPMI-8226 leukemia
# BT-549 breast = system: BT-549 breast
# OVCAR-8 ovarian = system: OVCAR-8 ovarian
# SF-295 CNS = system: SF-295 CNS
# K-562 leukemia = system: K-562 leukemia
# ACHN renal = system: ACHN renal
# SR leukemia = system: SR leukemia
# HCC-2998 colon = system: HCC-2998 colon
# OVCAR-3 ovarian = system: OVCAR-3 ovarian
# MDA-MB-435 = system: MDA-MB-435
# DU-145 prostate = system: DU-145 prostate
# SNB-75 CNS = system: SNB-75 CNS
# CCRF-CEM leukemia = system: CCRF-CEM leukemia
# RXF 393 renal = system: RXF 393 renal
# PC-3 prostate = system: PC-3 prostate
# HL-60(TB) leukemia = system: HL-60(TB) leukemia
# NCI-H226 lung = system: NCI-H226 lung
# OVCAR-4 ovarian = system: OVCAR-4 ovarian
# OVCAR-5 ovarian = system: OVCAR-5 ovarian
# SW-620 colon = system: SW-620 colon
# HCT-15 colon = system: HCT-15 colon
# 786-0 renal = system: 786-0 renal
# IGROV1 ovarian = system: IGROV1 ovarian
# SF-268 CNS = system: SF-268 CNS
# LOX IMVI melanoma = system: LOX IMVI melanoma
# CAKI-1 renal = system: CAKI-1 renal
# HOP-62 NSCLC = system: HOP-62 NSCLC
# M14 melanoma = system: M14 melanoma
# SNB-19 CNS = system: SNB-19 CNS
# SN12C renal = system: SN12C renal
# SK-OV-3 ovarian = system: SK-OV-3 ovarian
# MDA-MB-231 breast = system: MDA-MB-231 breast
# TK-10 renal = system: TK-10 renal
# U251 CNS = system: U251 CNS
# UACC-62 melanoma = system: UACC-62 melanoma
# T-47D breast = system: T-47D breast
smiles,measurement,setting,value
COc1cc(S(=O)(=O)Nc2ccc(-c3csc(N4C(=O)CSC4c4cccs4)n3)cc2)ccc1Cl (stereo unspecified),TGI,HCT-116 colon,> 100 µM
same,TGI,NCI-H460 lung,91 µM
same,TGI,SF-539 CNS,61.6 µM
same,TGI,MCF7 breast,31.7 µM
same,TGI,NCI-H23 lung,> 100 µM
same,TGI,NCI-H522 lung,33.9 µM
same,TGI,SK-MEL-2 melanoma,42.6 µM
same,TGI,HS 578T breast,78.3 µM
same,TGI,A549 NSCLC,> 100 µM
same,TGI,NCI/ADR-RES ovarian,> 100 µM
same,TGI,SK-MEL-28 melanoma,39.5 µM
same,TGI,HOP-92 NSCLC,> 100 µM
same,TGI,COLO 205 colon,> 100 µM
same,TGI,MDA-N,98.2 µM
same,TGI,UO-31 renal,> 100 µM
same,TGI,SK-MEL-5 melanoma,> 100 µM
same,TGI,KM12 colon,48.7 µM
same,TGI,UACC-257 melanoma,46 µM
same,TGI,A498 renal,> 100 µM
same,TGI,MOLT-4 leukemia,> 100 µM
same,TGI,EKVX NSCLC,> 100 µM
same,TGI,HT29 colon,> 100 µM
same,TGI,MALME-3M melanoma,70.6 µM
same,TGI,RPMI-8226 leukemia,66.8 µM
same,TGI,BT-549 breast,70.5 µM
same,TGI,OVCAR-8 ovarian,> 100 µM
same,TGI,SF-295 CNS,> 100 µM
same,TGI,K-562 leukemia,95.6 µM
same,TGI,ACHN renal,> 100 µM
same,TGI,SR leukemia,> 100 µM
same,TGI,HCC-2998 colon,30.7 µM
same,TGI,OVCAR-3 ovarian,> 100 µM
same,TGI,MDA-MB-435,> 100 µM
same,TGI,DU-145 prostate,62 µM
same,TGI,SNB-75 CNS,40.3 µM
same,TGI,CCRF-CEM leukemia,95.1 µM
same,TGI,RXF 393 renal,25.5 µM
same,TGI,PC-3 prostate,> 100 µM
same,TGI,HL-60(TB) leukemia,41.5 µM
same,TGI,NCI-H226 lung,81.8 µM
same,TGI,OVCAR-4 ovarian,82.9 µM
same,TGI,OVCAR-5 ovarian,> 100 µM
same,TGI,SW-620 colon,68.5 µM
same,TGI,HCT-15 colon,> 100 µM
same,TGI,786-0 renal,> 100 µM
same,TGI,IGROV1 ovarian,> 100 µM
same,TGI,SF-268 CNS,40.5 µM
same,TGI,LOX IMVI melanoma,36.6 µM
same,TGI,CAKI-1 renal,> 100 µM
same,TGI,HOP-62 NSCLC,> 100 µM
same,TGI,M14 melanoma,> 100 µM
same,TGI,SNB-19 CNS,> 100 µM
same,TGI,SN12C renal,73.7 µM
same,TGI,SK-OV-3 ovarian,> 100 µM
Cn1nc(Cc2ccc(Cl)cc2)n(N)c1=O,TGI,HCT-116 colon,> 100 µM
same,TGI,NCI-H460 lung,> 100 µM
same,TGI,SF-539 CNS,> 100 µM
same,TGI,MCF7 breast,> 100 µM
same,TGI,NCI-H23 lung,> 100 µM
same,TGI,A549 NSCLC,> 100 µM
same,TGI,NCI/ADR-RES ovarian,> 100 µM
same,TGI,SK-MEL-28 melanoma,> 100 µM
same,TGI,MDA-N,> 100 µM
same,TGI,UO-31 renal,> 100 µM
same,TGI,SK-MEL-5 melanoma,> 100 µM
same,TGI,KM12 colon,> 100 µM
same,TGI,UACC-257 melanoma,> 100 µM
same,TGI,MDA-MB-231 breast,> 100 µM
same,TGI,A498 renal,> 100 µM
same,TGI,MOLT-4 leukemia,> 100 µM
same,TGI,TK-10 renal,> 100 µM
same,TGI,HT29 colon,> 100 µM
same,TGI,MALME-3M melanoma,> 100 µM
same,TGI,RPMI-8226 leukemia,> 100 µM
same,TGI,BT-549 breast,> 100 µM
same,TGI,OVCAR-8 ovarian,> 100 µM
same,TGI,SF-295 CNS,> 100 µM
same,TGI,K-562 leukemia,> 100 µM
same,TGI,ACHN renal,> 100 µM
same,TGI,HCC-2998 colon,> 100 µM
same,TGI,MDA-MB-435,> 100 µM
same,TGI,DU-145 prostate,> 100 µM
same,TGI,SNB-75 CNS,> 100 µM
same,TGI,U251 CNS,> 100 µM
same,TGI,RXF 393 renal,> 100 µM
same,TGI,PC-3 prostate,> 100 µM
same,TGI,NCI-H226 lung,> 100 µM
same,TGI,UACC-62 melanoma,> 100 µM
same,TGI,OVCAR-5 ovarian,> 100 µM
same,TGI,SW-620 colon,> 100 µM
same,TGI,HCT-15 colon,> 100 µM
same,TGI,786-0 renal,> 100 µM
same,TGI,IGROV1 ovarian,> 100 µM
same,TGI,SF-268 CNS,> 100 µM
same,TGI,CAKI-1 renal,> 100 µM
same,TGI,SNB-19 CNS,> 100 µM
same,TGI,SN12C renal,> 100 µM
same,TGI,T-47D breast,> 100 µM
O=C1c2ccccc2C(=O)N1CC1(C(=O)O)NCCS1(=O)=O (stereo unspecified),TGI,HCT-116 colon,> 100 µM
same,TGI,NCI-H460 lung,> 100 µM
same,TGI,SF-539 CNS,> 100 µM
same,TGI,MCF7 breast,> 100 µM
same,TGI,NCI-H23 lung,> 100 µM
same,TGI,NCI-H522 lung,> 100 µM
same,TGI,SK-MEL-2 melanoma,> 100 µM
same,TGI,HS 578T breast,> 100 µM
same,TGI,A549 NSCLC,> 100 µM
same,TGI,NCI/ADR-RES ovarian,> 100 µM
same,TGI,SK-MEL-28 melanoma,> 100 µM
same,TGI,HOP-92 NSCLC,> 100 µM
same,TGI,COLO 205 colon,> 100 µM
same,TGI,MDA-N,> 100 µM
same,TGI,UO-31 renal,> 100 µM
same,TGI,SK-MEL-5 melanoma,> 100 µM
same,TGI,KM12 colon,> 100 µM
same,TGI,UACC-257 melanoma,> 100 µM
same,TGI,MDA-MB-231 breast,> 100 µM
same,TGI,A498 renal,> 100 µM
same,TGI,MOLT-4 leukemia,> 100 µM
same,TGI,EKVX NSCLC,> 100 µM
same,TGI,TK-10 renal,> 100 µM
same,TGI,HT29 colon,> 100 µM
same,TGI,MALME-3M melanoma,> 100 µM
same,TGI,RPMI-8226 leukemia,> 100 µM
same,TGI,BT-549 breast,> 100 µM
same,TGI,OVCAR-8 ovarian,> 100 µM
same,TGI,SF-295 CNS,> 100 µM
same,TGI,K-562 leukemia,> 100 µM
same,TGI,ACHN renal,> 100 µM
same,TGI,SR leukemia,> 100 µM
same,TGI,OVCAR-3 ovarian,> 100 µM
same,TGI,MDA-MB-435,> 100 µM
same,TGI,CCRF-CEM leukemia,> 100 µM
same,TGI,U251 CNS,> 100 µM
same,TGI,RXF 393 renal,> 100 µM
same,TGI,PC-3 prostate,> 100 µM
same,TGI,HL-60(TB) leukemia,> 100 µM
same,TGI,NCI-H226 lung,> 100 µM
same,TGI,OVCAR-4 ovarian,> 100 µM
same,TGI,UACC-62 melanoma,> 100 µM
same,TGI,OVCAR-5 ovarian,> 100 µM
same,TGI,SW-620 colon,> 100 µM
same,TGI,HCT-15 colon,> 100 µM
same,TGI,786-0 renal,> 100 µM
same,TGI,IGROV1 ovarian,> 100 µM
same,TGI,SF-268 CNS,> 100 µM
same,TGI,LOX IMVI melanoma,> 100 µM
same,TGI,CAKI-1 renal,> 100 µM
same,TGI,HOP-62 NSCLC,> 100 µM
same,TGI,M14 melanoma,> 100 µM
same,TGI,SNB-19 CNS,> 100 µM
same,TGI,SN12C renal,> 100 µM
same,TGI,SK-OV-3 ovarian,> 100 µM
same,TGI,T-47D breast,> 100 µM
CC1C2CC(CC(=O)N2)C1(C)C (stereo unspecified),TGI,HCT-116 colon,> 100 µM
same,TGI,NCI-H460 lung,> 100 µM
same,TGI,SF-539 CNS,> 100 µM
same,TGI,MCF7 breast,> 100 µM
same,TGI,NCI-H23 lung,> 100 µM
same,TGI,NCI-H522 lung,> 100 µM
same,TGI,HS 578T breast,> 100 µM
same,TGI,A549 NSCLC,> 100 µM
same,TGI,SK-MEL-28 melanoma,> 100 µM
same,TGI,HOP-92 NSCLC,> 100 µM
same,TGI,COLO 205 colon,> 100 µM
same,TGI,MDA-N,> 100 µM
same,TGI,UO-31 renal,> 100 µM
same,TGI,SK-MEL-5 melanoma,> 100 µM
same,TGI,KM12 colon,> 100 µM
same,TGI,UACC-257 melanoma,> 100 µM
same,TGI,MDA-MB-231 breast,> 100 µM
same,TGI,A498 renal,> 100 µM
same,TGI,EKVX NSCLC,> 100 µM
same,TGI,TK-10 renal,> 100 µM
same,TGI,HT29 colon,> 100 µM
same,TGI,MALME-3M melanoma,> 100 µM
same,TGI,BT-549 breast,> 100 µM
same,TGI,OVCAR-8 ovarian,> 100 µM
same,TGI,SF-295 CNS,> 100 µM
same,TGI,K-562 leukemia,> 100 µM
same,TGI,ACHN renal,> 100 µM
same,TGI,HCC-2998 colon,> 100 µM
same,TGI,OVCAR-3 ovarian,> 100 µM
same,TGI,MDA-MB-435,> 100 µM
same,TGI,DU-145 prostate,> 100 µM
same,TGI,SNB-75 CNS,> 100 µM
same,TGI,CCRF-CEM leukemia,> 100 µM
same,TGI,U251 CNS,> 100 µM
same,TGI,RXF 393 renal,> 100 µM
same,TGI,PC-3 prostate,> 100 µM
same,TGI,HL-60(TB) leukemia,> 100 µM
same,TGI,NCI-H226 lung,> 100 µM
same,TGI,OVCAR-4 ovarian,> 100 µM
same,TGI,UACC-62 melanoma,> 100 µM
same,TGI,OVCAR-5 ovarian,> 100 µM
same,TGI,SW-620 colon,> 100 µM
same,TGI,786-0 renal,> 100 µM
same,TGI,IGROV1 ovarian,> 100 µM
same,TGI,SF-268 CNS,> 100 µM
same,TGI,CAKI-1 renal,> 100 µM
same,TGI,HOP-62 NSCLC,> 100 µM
same,TGI,M14 melanoma,> 100 µM
same,TGI,SNB-19 CNS,> 100 µM
same,TGI,SN12C renal,> 100 µM
same,TGI,SK-OV-3 ovarian,> 100 µM
same,TGI,T-47D breast,> 100 µM
